According to ChEMBL document CHEMBL5034043, “Bifunctional Compounds as SMARCA2 Degraders for Treating Cancer” (ACS Med Chem Lett, 2022):

Biological target: SWI/SNF-related matrix-associated actin-dependent regulator of chromatin subfamily A member 2 (Homo sapiens, UniProt P51531)
Experiment: Induction of degradation of HiBit-tagged SMARCA2 in human A549 cells incubated for 6 hrs by NanoGlo HiBiT lytic assay
Format: cell-based

Sequence of SWI/SNF-related matrix-associated actin-dependent regulator of chromatin subfamily A member 2 (P51531 whole entry): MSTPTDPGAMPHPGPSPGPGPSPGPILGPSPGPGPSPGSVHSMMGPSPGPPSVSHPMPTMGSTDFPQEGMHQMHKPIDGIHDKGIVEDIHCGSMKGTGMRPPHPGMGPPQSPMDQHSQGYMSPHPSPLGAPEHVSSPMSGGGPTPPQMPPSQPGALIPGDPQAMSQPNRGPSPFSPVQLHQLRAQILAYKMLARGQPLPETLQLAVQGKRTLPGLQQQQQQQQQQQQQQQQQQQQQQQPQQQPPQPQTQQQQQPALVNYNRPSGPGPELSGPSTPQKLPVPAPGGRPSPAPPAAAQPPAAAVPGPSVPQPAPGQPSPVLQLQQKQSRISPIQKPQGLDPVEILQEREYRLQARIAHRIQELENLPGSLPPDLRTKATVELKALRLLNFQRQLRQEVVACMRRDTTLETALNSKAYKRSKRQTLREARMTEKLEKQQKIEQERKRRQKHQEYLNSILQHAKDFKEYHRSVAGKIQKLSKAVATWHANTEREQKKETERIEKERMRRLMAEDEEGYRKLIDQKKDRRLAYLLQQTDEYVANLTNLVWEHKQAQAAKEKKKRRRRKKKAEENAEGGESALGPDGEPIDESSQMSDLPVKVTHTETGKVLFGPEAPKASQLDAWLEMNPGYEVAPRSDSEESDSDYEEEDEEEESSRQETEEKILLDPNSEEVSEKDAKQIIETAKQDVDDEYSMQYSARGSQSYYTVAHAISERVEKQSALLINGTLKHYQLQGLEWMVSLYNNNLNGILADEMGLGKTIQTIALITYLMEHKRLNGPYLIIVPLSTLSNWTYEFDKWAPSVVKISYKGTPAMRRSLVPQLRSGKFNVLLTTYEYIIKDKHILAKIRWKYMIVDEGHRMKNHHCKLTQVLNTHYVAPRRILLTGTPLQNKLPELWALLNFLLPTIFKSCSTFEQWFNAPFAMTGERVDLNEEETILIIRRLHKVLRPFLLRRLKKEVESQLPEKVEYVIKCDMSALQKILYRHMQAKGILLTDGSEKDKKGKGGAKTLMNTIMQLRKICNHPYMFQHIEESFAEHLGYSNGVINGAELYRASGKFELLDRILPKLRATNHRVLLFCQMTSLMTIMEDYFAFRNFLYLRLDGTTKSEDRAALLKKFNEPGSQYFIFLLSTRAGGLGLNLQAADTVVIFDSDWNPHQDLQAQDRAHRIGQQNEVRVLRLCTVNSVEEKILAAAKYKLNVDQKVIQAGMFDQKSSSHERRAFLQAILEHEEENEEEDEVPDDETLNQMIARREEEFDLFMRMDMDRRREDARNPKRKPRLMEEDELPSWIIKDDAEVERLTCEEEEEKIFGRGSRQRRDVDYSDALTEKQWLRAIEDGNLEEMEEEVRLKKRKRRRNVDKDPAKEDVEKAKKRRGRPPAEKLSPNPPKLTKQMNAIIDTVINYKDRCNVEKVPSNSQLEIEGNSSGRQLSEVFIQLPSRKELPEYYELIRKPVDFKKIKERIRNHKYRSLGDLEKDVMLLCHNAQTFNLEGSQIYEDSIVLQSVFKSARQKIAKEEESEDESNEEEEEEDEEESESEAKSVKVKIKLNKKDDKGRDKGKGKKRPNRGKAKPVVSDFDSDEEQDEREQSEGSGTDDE

| SMILES | DC50 [nM] |
| --- | --- |
| Nc1nnc(-c2cc(F)ccc2O)cc1N1CC2CCC(C1)N2c1cccc(CN2CCN(C(=O)C3CCN(c4ccc5c(c4)C(=O)N(C4CCC(=O)NC4=O)C5=O)CC3)CC2)c1 (stereo unspecified) | 3 |
| Nc1nnc(-c2ccccc2O)cc1N1CC(Oc2cccc(CN3CCN(C(=O)CN4CCC(c5ccc(NC6CCC(=O)NC6=O)cc5)CC4)CC3)c2)C1 (stereo unspecified) | 3 |
| Nc1nnc(-c2ccccc2O)cc1N1CC2CCC(C1)N2c1cccc(OCCN2CCN(CCCC3CCN(c4ccc5c(c4)C(=O)N(C4CCC(=O)NC4=O)C5=O)CC3)CC2)c1 (stereo unspecified) | 2 |
| Nc1nnc(-c2ccccc2O)cc1N1CCN(c2cccc(CN3CCN(C(=O)C4CCN(c5ccc6c(c5)C(=O)N(C5CCC(=O)NC5=O)C6=O)CC4)CC3)c2)C2(CC2)C1 (stereo unspecified) | 4 |
| Nc1nnc(-c2ccccc2O)cc1N1CC2CCC(C1)N2c1cccc(OCCN2CCN(CC3CCN(c4ccc5c(c4)C(=O)N(C4CCC(=O)NC4=O)C5=O)CC3)CC2)c1 (stereo unspecified) | 2 |
| Nc1nnc(-c2ccccc2O)cc1N1CCC(C(=O)N2CCC(C(=O)N3CCN(c4ccc(C5CCC(=O)NC5=O)cc4)CC3)CC2)(c2ccccc2)CC1 (stereo unspecified) | 3 |
